In US20110190272A1, “CHEMICAL COMPOUNDS” (ASTRAZENECA AB, priority 2008, published 2011) one finds IC50 data, which are given here for 16 compounds.

The target of one test is T1, CSF-1R (Homo sapiens, UniProt P07333).
T1 construct: The His-tagged kinase domain of CSF-1R (i.e., amino acids 568-912, GeneBank ID NM_005211); His; made in house; host or cells: baculovirus infected SF+Express insect cells
T1 sequence (P07333 568-912): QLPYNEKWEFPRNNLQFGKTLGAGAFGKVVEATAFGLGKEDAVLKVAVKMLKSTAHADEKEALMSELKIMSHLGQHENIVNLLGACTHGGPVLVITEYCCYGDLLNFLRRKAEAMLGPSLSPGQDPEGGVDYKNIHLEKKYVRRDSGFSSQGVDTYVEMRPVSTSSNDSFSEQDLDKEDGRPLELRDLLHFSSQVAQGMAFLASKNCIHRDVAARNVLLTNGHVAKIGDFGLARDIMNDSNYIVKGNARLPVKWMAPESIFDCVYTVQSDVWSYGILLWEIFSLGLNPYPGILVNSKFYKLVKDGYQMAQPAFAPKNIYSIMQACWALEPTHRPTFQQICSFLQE
Put plainly: Assay 2: CSF1R In-Vitro AlphaScreen Assay. Particulars: purified His-tagged kinase domain of CSF-1R, 12 mM ATP in mix. Type of test: biochemical. The procedure:
Assay 2: CSF1R In-Vitro AlphaScreen Assay
Activity of purified CSF-1R was determined in-vitro using an Amplified Luminescent Proximity Homogeneous Assay (ALPHA) (Perkin Elmer, Mass.), which measures phosphorylation of CSF-1R substrate, biotinylated […] peptide (pEY-HTRF CisBio 61GT0BLD), as described below. The His-tagged kinase domain of CSF-1R (i.e., amino acids 568-912, GeneBank ID NM_005211) was purified from baculovirus infected SF+Express insect cells (1.4×10^6 cells/ml), French pressed and chromatographed through subsequent QIAgen Ni-NTA, Superflow Mono Q HR 10/10, and Superdex 200 SEC columns.
The phosphorylation of the CSF-1R substrate in the presence and absence of the compound of interest was determined. Briefly, 5 ul of Enzyme/Substrate/adenosine triphosphate (ATP) mix consisting of 0.46 nM of purified CSF-1R, 12 nM pEY substrate, and 12 mM ATP in 1.2× buffer was preincubated with 2 ul of compound for 20 minutes at 25° C. Reactions were initiated with 5 ul of Metal mix consisting of 24 mM MgCl2 in 1.2× buffer and incubated at 25° C. for 90 minutes and reactions were stopped by addition of 5 ul of Detection mix consisting of 20 mM HEPES, 102 mM ethylenediamine tetraacetic acid, 1.65 mg/ml BSA, 136 mM NaCl, 40 ug/ml Streptavidin donor beads (Perkin Elmer, Mass., Catalog #6760002), and 40 ug/ml phosphotyrosine-specific antibody coated acceptor beads (Perkin Elmer, Mass., Catalog #6760620). Plates were incubated at 25° C. for 18 hours in the dark. Phosphorylated substrate was detected by an EnVision plate reader (Perkin Elmer) 680 nm excitation, 520-620 nm emission. Data was graphed and IC50s calculated using Excel Fit (Microsoft).
In general terms: Alpha assays give light when donor and acceptor beads are brought close together.
A word on the IC50: it is the midpoint of a concentration-inhibition curve. A lower IC50 goes with inhibition by little substance. `COc1cc2nnc(C(N)=O)c(Nc3ccc(C)cc3F)c2cc1CN1CCOCC1` [Example 73, 4-[(2-Fluoro-4-methylphenyl)amino]-7-methoxy-6-(morpholin-4-ylmethyl)cinnoline-3-carboxamide] showed an IC50 of 52 nM. On the same count and under the same terms, to `Cc1ccc(Nc2c(C(N)=O)nnc3cc(N4CCN(CCO)CC4)ccc23)c(F)c1` [Example 57, 4-[(2-Fluoro-4-methylphenyl)amino]-7-[4-(2-hydroxyethyl)piperazin-1-yl]cinnoline-3-carboxamide] belongs 8 nM.

In turn, `COc1cc2nnc(C(N)=O)c(Nc3ccc(C)cc3F)c2cc1N1CCN(C[C@@H](O)CO)CC1` [Example 68, 6-{4-[(2R)-2,3-Dihydroxypropyl]piperazin-1-yl}-4-[(2-fluoro-4-methylphenyl)amino]-7-methoxycinnoline-3-carboxamide] gave a half-maximal inhibitory concentration (IC50) of 6 nM.

Regarding `COc1cc2nnc(C(N)=O)c(Nc3ccc(C)cc3F)c2cc1N1C[C@@H](C)N(C(C)=O)[C@@H](C)C1` [Example 72, 6-[(3R,55)-4-Acetyl-3,5-dimethylpiperazin-1-yl]-4-[(2-fluoro-4-methylphenyl)amino]-7-methoxycinnoline-3-carboxamide], it took 52 nM to reach half-maximal inhibition (IC50). Still for that read-out and setting: the same measure for `COc1cc2nnc(C(N)=O)c(Nc3ccc(C)cc3F)c2cc1N1CCN(C(CO)CO)CC1` [Example 66, 4-[(2-Fluoro-4-methylphenyl)amino]-6-{4-[2-hydroxy-1-(hydroxymethyl)ethyl]piperazin-1-yl}-7-methoxycinnoline-3-carboxamide]: 4 nM; for `COc1cc2nnc(C(N)=O)c(Nc3ccc(C)cc3F)c2cc1N1C[C@@H](C)N(CCO)[C@@H](C)C1` [Example 63, 4-[(2-Fluoro-4-methylphenyl)amino]-6-[(3R,5S)-4-(2-hydroxyethyl)-3,5-dimethylpiperazin-1-yl]-7-methoxycinnoline-3-carboxamide]: 12 nM. On the same count and under the same terms, the same measure for `COc1cc2nnc(C(N)=O)c(Nc3ccc(C)cc3F)c2cc1N1CCN(C[C@H](O)CO)CC1` [Example 67, 6-{4-[(25)-2,3-Dihydroxypropyl]piperazin-1-yl}-4-[(2-fluoro-4-methylphenyl)amino]-7-methoxycinnoline-3-carboxamide]: 5 nM.

The compound `COc1cc2nnc(C(N)=O)c(Nc3ccc(C)cc3F)c2cc1N1CCN(C(=O)C(C)(C)O)CC1` [Example 69, 4-[(2-Fluoro-4-methylphenyl)amino]-6-[4-(2-hydroxy-2-methylpropanoyl)piperazin-1-yl]-7-methoxycinnoline-3-carboxamide] came in with an IC50 of 23 nM. With `COc1cc2nnc(C(N)=O)c(Nc3ccc(C)cc3F)c2cc1C1CCN(CC(F)F)CC1` [Example 71, 6-[1-(2,2-Difluoroethyl)piperidin-4-yl]-4-[(2-fluoro-4-methylphenyl)amino]-7-methoxycinnoline-3-carboxamide], 39 nM corresponded to half-maximal inhibition (IC50). As for `Cc1ccc(Nc2c(C(N)=O)nnc3cc(N4CCN(C)CC4)ccc23)c(F)c1` [Example 55, 4-[(2-Fluoro-4-methylphenyl)amino]-7-(4-methylpiperazin-1-yl)cinnoline-3-carboxamide], the IC50 came to 3 nM. `COc1cc2nnc(C(N)=O)c(Nc3ccc(C)cc3F)c2cc1C1CCN(C(=O)[C@H](C)O)CC1` [Example 70, 4-[(2-Fluoro-4-methylphenyl)amino]-6-{1-[(2S)-2-hydroxypropanoyl]piperidin-4-yl}-7-methoxycinnoline-3-carboxamide]: the midpoint of inhibition, the IC50, lay at 24 nM. As for `COc1cc2nnc(C(N)=O)c(Nc3ccc(C)cc3F)c2cc1N1CC[C@H](N(C)C)C1` [Example 41, 6-[(3S)-3-(Dimethylamino)pyrrolidin-1-yl]-4-[(2-fluoro-4-methylphenyl)amino]-7-methoxycinnoline-3-carboxamide], the half-inhibitory concentration (IC50) was less than 3 nM. Same read-out and setting: to `COCCOC1CCN(c2cc3c(Nc4ccc(C)cc4F)c(C(N)=O)nnc3cc2OC)CC1` [Example 60, 4-[(2-Fluoro-4-methylphenyl)amino]-7-methoxy-6-[4-(2-methoxyethoxy)piperidin-1-yl]cinnoline-3-carboxamide] belongs 39 nM.

`Cc1ccc(Nc2c(C(N)=O)nnc3cc(N4CCN(S(C)(=O)=O)CC4)ccc23)c(F)c1` [Example 56, 4-[(2-Fluoro-4-methylphenyl)amino]-7-[4-(methylsulfonyl)piperazin-1-yl]cinnoline-3-carboxamide] showed an IC50 of 11 nM. `COc1cc2nnc(C(N)=O)c(Nc3ccc(C)cc3F)c2cc1N1CCN(CCS(C)(=O)=O)CC1` [Example 65, 4-[(2-Fluoro-4-methylphenyl)amino]-7-methoxy-6-{4-[2-(methylsulfonyl)ethyl]piperazin-1-yl}cinnoline-3-carboxamide] returned a half-maximal inhibitory concentration (IC50) of 6 nM.

The target of a further test is T1, CSF-1R. Description: Assay 1: CSF-1R In Vitro AlphaScreen Assay. In kind it is biochemical. Particulars: purified His-tagged kinase domain of CSF-1R, 90 μM ATP. The method, then:
The phosphorylation of the CSF-1R substrate in the presence and absence of the compound of interest was determined. […] Plates were incubated at 25° C. for 18 hours in the dark. Phosphorylated substrate was detected by an EnVision plate reader (Perkin Elmer) 680 nm excitation, 520-620 nm emission. Data was graphed and IC50s calculated using Excel Fit (Microsoft).
For `COc1cc2nnc(C(N)=O)c(Nc3cccc(Cl)c3F)c2cc1OC` [Example 3, 4-[(3-Chloro-2-fluorophenyl)amino]-6,7-dimethoxycinnoline-3-carboxamide], the IC50 is less than 3 nM.
